Molecular target: T1, WIP1 (wild-type p53-induced phosphatase 1, PPM1D) (Homo sapiens, UniProt O15297)
T1 construct: WIP1-ΔExon6-His-pET-23a+ construct
T1 sequence (O15297 1-420 limits assumed): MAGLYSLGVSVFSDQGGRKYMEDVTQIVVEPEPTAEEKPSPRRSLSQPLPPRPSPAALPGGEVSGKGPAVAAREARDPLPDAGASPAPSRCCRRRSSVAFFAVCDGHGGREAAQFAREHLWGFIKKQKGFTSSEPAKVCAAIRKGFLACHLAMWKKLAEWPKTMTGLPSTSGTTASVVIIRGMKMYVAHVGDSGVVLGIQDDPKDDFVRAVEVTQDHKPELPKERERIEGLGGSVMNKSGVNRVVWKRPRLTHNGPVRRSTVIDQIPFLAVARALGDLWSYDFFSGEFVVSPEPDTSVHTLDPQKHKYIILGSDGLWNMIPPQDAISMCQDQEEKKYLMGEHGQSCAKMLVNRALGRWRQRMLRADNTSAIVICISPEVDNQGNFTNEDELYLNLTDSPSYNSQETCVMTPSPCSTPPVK
Assay: in vitro phosphatase assay, free phosphate release (BIOMOL Green), H2AX pS139 phosphopeptide substrate (p53 pS15 peptide:[…])
Type: biochemical

Cc1ncc(Cl)cc1NCc1ccc(C(=O)N[C@@H](CC2CCCC2)C(=O)NC2CC2)s1 [GSK2830371]
IC50: 123 nM
